# Measured values from patent EP1604976A1 (Advance Holdings Limited, priority 2004, dated 2005).
# Columns and labels:
# COX-2 = COX-2 (Homo sapiens, UniProt P35354); conditions: Famaey 1997; Cullen et al. 1998; cited from earlier work
# [1] = stability of product of Formula (I) in aqueous solution / acid medium; format: physicochemical
# [2] = water solubility of products of Formula (I)
# Chain of COX-2 (P35354 18-604): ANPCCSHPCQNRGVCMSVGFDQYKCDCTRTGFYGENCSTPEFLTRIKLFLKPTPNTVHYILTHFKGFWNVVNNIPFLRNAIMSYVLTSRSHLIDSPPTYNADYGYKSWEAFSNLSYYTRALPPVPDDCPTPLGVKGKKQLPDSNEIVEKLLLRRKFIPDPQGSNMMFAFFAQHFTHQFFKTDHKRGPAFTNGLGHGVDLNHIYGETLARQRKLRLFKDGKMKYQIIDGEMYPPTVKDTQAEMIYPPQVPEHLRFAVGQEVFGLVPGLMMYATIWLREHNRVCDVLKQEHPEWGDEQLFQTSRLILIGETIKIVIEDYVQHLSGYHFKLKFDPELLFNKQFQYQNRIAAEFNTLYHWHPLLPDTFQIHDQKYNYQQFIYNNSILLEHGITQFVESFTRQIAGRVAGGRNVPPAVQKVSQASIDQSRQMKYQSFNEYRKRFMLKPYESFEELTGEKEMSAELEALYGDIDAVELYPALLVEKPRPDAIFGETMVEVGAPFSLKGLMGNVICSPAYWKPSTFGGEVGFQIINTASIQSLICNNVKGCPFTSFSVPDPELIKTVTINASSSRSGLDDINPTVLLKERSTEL
compound,measurement,setting,value
CS(=O)(=O)Nc1ccc([N+](=O)[O-])cc1Oc1ccccc1 [nimesulide],COX-2 versus COX-1 inhibition preference,COX-2,inhibit preferentially COX-2 more than COX-1
CS(=O)(=O)N(c1ccc([N+](=O)[O-])cc1Oc1ccccc1)S(=O)(=O)O [Product I in which X is Na],effect of acidification of the solution,[1]; acidification to about pH 2 with HCl,decomposition of the product and precipitation of the theoretical quantity of nimesulide
same,stability of the aqueous solution,"[1]; approximately 3.5 wt.% aqueous solution, room temperature, seventh day",still stable on the seventh day
same,solubility,[2],~35 mg/mL
CS(=O)(=O)N(c1ccc([N+](=O)[O-])cc1Oc1ccccc1)S(=O)(=O)O [acid form (X = H)],stability of the acid form,[1]; especially in an acid medium,rather unstable
